# In patent US8252935B2, “Piperidinyl and piperazinyl modulators of γ-secretase” (Janssen Pharmaceutica N.V., priority 2007, dated 2012):
# Target: γ-secretase (Homo sapiens, UniProt P49768)
# Assay: Screening for γ-secretase-modulating activity in SKNBE2 cells carrying APP 695 wild type (assay of Citron et al 1997)
# Type: cell-based
# Conditions: SKNBE2, @ 1 uM; SKNBE2 cells carrying the APP 695 wild type
# Experimental: Screening was carried out using SKNBE2 cells carrying the APP 695—wild type, grown in DMEM/NUT-mix F12 (HAM) provided by Gibco (cat no. 31330-38) containing 5% Serum/Fe supplemented with 1% non-essential amino acids. Cells were grown to near confluency. The screening was performed using the assay as described in Citron et al (1997) Nature Medicine 3: 67.
row,inhibition at 1 µM,SMILES
1,2%,"CC(C)CC(C(=O)O)c1cc(-c2ccc(C(F)(F)F)cc2)cc(C2CCNCC2)c1 (stereo not shown) [Example 68, 4-Methyl-2-(5-piperidin-4-yl-4′-trifluoromethyl-biphenyl-3-yl)-pentanoic acid]"
2,52%,"COCCCC1CCCCN1c1cc(-c2ccc(C(F)(F)F)cc2)cc([C@@H](CC(C)C)C(=O)O)c1 (stereo partly drawn) [Example 60, (R)-2-{5-[2-(3-Methoxy-propyl)-piperidin-1-yl]-4′-trifluoromethyl-biphenyl-3-yl}-4-methyl-pentanoic acid]"
3,30%,"CC(C)CC(C(=O)O)c1cc(-c2ccc(C(F)(F)F)cc2)cc(C2CCC(C(F)(F)F)CN2C)c1 (stereo not shown) [Example 13, 4-Methyl-2-[5-(1-methyl-5-trifluoromethyl-piperidin-2-yl)-4′-trifluoromethyl-biphenyl-3-yl]-pentanoic acid]"
4,54%,"CC(C)CC(C(=O)O)c1cc(-c2ccc(C(F)(F)F)cc2)cc(C2CCCN(Cc3ccc4nnsc4c3)C2)c1 (stereo not shown) [Example 49, 2-[5-(1-Benzo[1,2,3]thiadiazol-6-ylmethyl-piperidin-3-yl)-4′-trifluoromethyl-biphenyl-3-yl]-4-methyl-pentanoic acid]"
5,30%,"CC(C)CC(C(=O)O)c1cc(-c2ccc(C(F)(F)F)cc2)cc(C2CCC(C(F)(F)F)CN2)c1 (stereo not shown) [Example 23, 4-Methyl-2-[4′-trifluoromethyl-5-(5-trifluoromethyl-piperidin-2-yl)-biphenyl-3-yl]-pentanoic acid]"
6,48%,"COc1ccc(CN2CCCC(c3cc(-c4ccc(C(F)(F)F)cc4)cc(C(CC(C)C)C(=O)O)c3)C2)cc1C(F)(F)F (stereo not shown) [Example 51, 2-{5-[1-(4-Methoxy-3-trifluoromethyl-benzyl)-piperidin-3-yl]-4′-trifluoromethyl-biphenyl-3-yl}-4-methyl-pentanoic acid]"
7,55%,"CC(C)CC(C(=O)O)c1cc(-c2ccc(C(F)(F)F)cc2)cc(C2CCCN(C(=O)c3ccc(C(F)(F)F)cc3)C2)c1 (stereo not shown) [Example 43, 4-Methyl-2-{4′-trifluoromethyl-5-[1-(4-trifluoromethyl-benzoyl)-piperidin-3-yl]-biphenyl-3-yl}-pentanoic acid]"
8,57%,"CC(C)CC(C(=O)O)c1cc(-c2ccc(C(F)(F)F)cc2)cc(C2CCCN(Cc3cc(C(F)(F)F)cc(C(F)(F)F)c3)C2)c1 (stereo not shown) [Example 53, 2-{5-[1-(3,5-Bis-trifluoromethyl-benzyl)-piperidin-3-yl]-4′-trifluoromethyl-biphenyl-3-yl}-4-methyl-pentanoic acid]"
9,70%,"COc1ccc(CN2C(c3cc(-c4ccc(C(F)(F)F)cc4)cc(C(CC(C)C)C(=O)O)c3)CCCC2C(F)(F)F)cc1 (stereo not shown) [Example 7, 2-{5-[1-(4-Methoxy-benzyl)-6-trifluoromethyl-piperidin-2-yl]-4′-trifluoromethyl-biphenyl-3-yl}-4-methyl-pentanoic acid]"
10,8%,"CC(C)C[C@@H](C(=O)O)c1cc(-c2ccc(C(F)(F)F)cc2)cc([C@@H]2CC[C@H](C(F)(F)F)NC2)c1 (relative stereo) [Example 35, 4-Methyl-2-[4′-trifluoromethyl-5-(6-trifluoromethyl-piperidin-3-yl)-biphenyl-3-yl]-pentanoic acid]"
11,8%,"CC(C)CC(C(=O)O)c1cc(-c2ccc(C(F)(F)F)cc2)cc(N2CCC(F)(F)CC2)c1 (stereo not shown) [Example 5, 2-(5-(4,4-difluoropiperidin-1-yl)-4′-(trifluoromethyl)biphenyl-3-yl)-4-methylpentanoic acid]"
12,45%,"CC(C)CC(C(=O)O)c1cc(-c2ccc(C(F)(F)F)cc2)cc(C2CCCN(c3ccc(F)c(F)c3)C2)c1 (stereo not shown) [Example 55, 2-{5-[1-(3,4-Difluoro-phenyl)-piperidin-3-yl]-4′-trifluoromethyl-biphenyl-3-yl}-4-methyl-pentanoic acid]"
13,46%,"CC(C)CC(C(=O)O)c1cc(-c2ccc(C(F)(F)F)cc2)cc(C2CCCN(Cc3ccc(-n4cccc4)cc3)C2)c1 (stereo not shown) [Example 44, 4-Methyl-2-{5-[1-(4-pyrrol-1-yl-benzyl)-piperidin-3-yl]-4′-trifluoromethyl-biphenyl-3-yl}-pentanoic acid]"
14,11%,"CC(C)CCN1CCC(c2cc(-c3ccc(C(F)(F)F)cc3)cc(C(CC(C)C)C(=O)O)c2)CC1 (stereo not shown) [Example 76, 4-Methyl-2-{5-[1-(3-methyl-butyl)-piperidin-4-yl]-4′-trifluoromethyl-biphenyl-3-yl}-pentanoic acid]"
15,37%,"CC(C)CC(C(=O)O)c1cc(-c2ccc(C(F)(F)F)cc2)cc(C2CCCN(c3ccc(C(F)(F)F)cc3)C2)c1 (stereo not shown) [Example 59, 4-Methyl-2-{4′-trifluoromethyl-5-[1-(4-trifluoromethyl-phenyl)-piperidin-3-yl]-biphenyl-3-yl}-pentanoic acid]"
16,6%,"CC(C)CC(C(=O)O)c1cc(-c2ccc(C(F)(F)F)cc2)cc(C2CCN(c3ccc(C(F)(F)F)cc3)CC2)c1 (stereo not shown) [Example 72, 4-Methyl-2-{4′-trifluoromethyl-5-[1-(4-trifluoromethyl-phenyl)-piperidin-4-yl]-biphenyl-3-yl}-pentanoic acid]"

row,inhibition at 1 µM,SMILES
1,9%,"CC(C)CC(C(=O)O)c1cc(-c2ccc(C(F)(F)F)cc2)cc(C2CC[N+](C)(C)CC2)c1 (stereo not shown) [Example 73, 2-[5-(1,1-Dimethyl-piperidin-4-yl)-4′-trifluoromethyl-biphenyl-3-yl]-4-methyl-pentanoic acid]"
2,0%,"CCN1CCCC(c2cc(-c3ccc(C(F)(F)F)cc3)cc(C(CC(C)C)C(=O)O)c2)C1 (stereo not shown) [Example 66, 2-[5-(1-Ethyl-piperidin-3-yl)-4′-trifluoromethyl-biphenyl-3-yl]-4-methyl-pentanoic acid]"
3,22%,"CCC(CC)N1CCCC(c2cc(-c3ccc(C(F)(F)F)cc3)cc(C(CC(C)C)C(=O)O)c2)C1 (stereo not shown) [Example 33, 2-{5-[1-(1-Ethyl-propyl)-piperidin-3-yl]-4′-trifluoromethyl-biphenyl-3-yl}-4-methyl-pentanoic acid]"
4,28%,"CC(C)CC(C(=O)O)c1cc(-c2ccc(C(F)(F)F)cc2)cc(N2CCN(c3ccc(F)c(F)c3)CC2)c1 (stereo not shown) [Example 79, 2-{5-[4-(3,4-Difluoro-phenyl)-piperazin-1-yl]-4′-trifluoromethyl-biphenyl-3-yl}-4-methyl-pentanoic acid]"
5,80%,"CC(C)CC(C(=O)O)c1cc(-c2ccc(C(F)(F)F)cc2)cc(C2CCCN(C(c3ccccc3)c3ccccc3)C2)c1 (stereo not shown) [Example 54, 2-[5-(1-Benzhydryl-piperidin-3-yl)-4′-trifluoromethyl-biphenyl-3-yl]-4-methyl-pentanoic acid]"
6,63%,"CC(C)CC(C(=O)O)c1cc(-c2ccc(C(F)(F)F)cc2)cc(N2CCN(c3ccc(C(F)(F)F)cc3)CC2)c1 (stereo not shown) [Example 81, 4-Methyl-2-{4′-trifluoromethyl-5-[4-(4-trifluoromethyl-phenyl)-piperazin-1-yl]-biphenyl-3-yl}-pentanoic acid]"
7,47%,"CC(C)CC(C(=O)O)c1cc(-c2ccc(C(F)(F)F)cc2)cc(C2CCN(Cc3cc(F)cc(C(F)(F)F)c3)CC2)c1 (stereo not shown) [Example 70, 2-{5-[1-(3-Fluoro-5-trifluoromethyl-benzyl)-piperidin-4-yl]-4′-trifluoromethyl-biphenyl-3-yl}-4-methyl-pentanoic acid]"
8,45%,"CCC1CCCCN1c1cc(-c2ccc(C(F)(F)F)cc2)cc(C(CC(C)C)C(=O)O)c1 (stereo not shown) [Example 2, 2-[5-(2-Ethyl-piperidin-1-yl)-4′-trifluoromethyl-biphenyl-3-yl]-4-methyl-pentanoic acid]"
9,57%,"CC(C)CC(C(=O)O)c1cc(-c2ccc(C(F)(F)F)cc2)cc(C2CCCN(Cc3ccc4ccccc4c3)C2)c1 (stereo not shown) [Example 46, 4-Methyl-2-[5-(1-naphthalen-2-ylmethyl-piperidin-3-yl)-4′-trifluoromethyl-biphenyl-3-yl]-pentanoic acid]"
10,0%,"CC(C)CC(C(=O)O)c1cc(-c2ccc(C(F)(F)F)cc2)cc(C2CCCC(C)N2)c1 (stereo not shown) [Example 6, 4-Methyl-2-[5-(6-methyl-piperidin-2-yl)-4′-trifluoromethyl-biphenyl-3-yl]-pentanoic acid]"
11,4%,"CC(C)CC(C(=O)O)c1cc(-c2ccc(C(F)(F)F)cc2)cc(C2CCN(C3CCCCC3)CC2)c1 (stereo not shown) [Example 74, 2-[5-(1-Cyclohexyl-piperidin-4-yl)-4′-trifluoromethyl-biphenyl-3-yl]-4-methyl-pentanoic acid]"
12,34%,"CC(C)CCN1CCCCC1c1cc(-c2ccc(C(F)(F)F)cc2)cc(C(CC(C)C)C(=O)O)c1 (stereo not shown) [Example 10, 4-Methyl-2-{5-[1-(3-methyl-butyl)-piperidin-2-yl]-4′-trifluoromethyl-biphenyl-3-yl}-pentanoic acid]"
13,0%,"CC(C)CCN1C(c2cc(-c3ccc(C(F)(F)F)cc3)cc(C(F)(CC(C)C)C(=O)O)c2)CCCC1C(F)(F)F (stereo not shown) [Example 16, 2-Fluoro-4-methyl-2-{5-[1-(3-methyl-butyl)-6-trifluoromethyl-piperidin-2-yl]-4′-trifluoromethyl-biphenyl-3-yl}-pentanoic acid]"
14,35%,"CC(C)CCN1C(c2cc(-c3ccc(C(F)(F)F)cc3)cc(C(F)(F)C(=O)O)c2)CCCC1C(F)(F)F (stereo not shown) [Example 22, Difluoro-{5-[1-(3-methyl-butyl)-6-trifluoromethyl-piperidin-2-yl]-4′-trifluoromethyl-biphenyl-3-yl}-acetic acid]"
15,51%,"CC(C)CCC(c1ccc(C(F)(F)F)cc1)N1CCC(c2cc(-c3ccc(C(F)(F)F)cc3)cc(C(CC(C)C)C(=O)O)c2)CC1 (stereo not shown) [Example 71, 4-Methyl-2-(5-{1-[4-methyl-1-(4-trifluoromethyl-phenyl)-pentyl]-piperidin-4-yl}-4′-trifluoromethyl-biphenyl-3-yl)-pentanoic acid]"
